Measured values: patent publication US20230097157A1, “Bicyclic Pyridin-2-one and pyrimidin-4-one Derivatives Useful As a Factor XIa Inhibitors” (Janssen Pharmaceutica NV, priority 2021, published 2023)
Read-outs that look alike come from different tables or passages of the source.

Experiments:
Factor XIa = Factor XIa (Homo sapiens, UniProt P03951); test: Factor XIa inhibition assay (FLINT) utilizing a fluorophore-quencher pair peptide substrate 5Fam-[…]-K5Tamra; assay type: biochemical; details: kinetic (KIN) reads, read-out: FXIa KIN Inh IC50
From the text: Biological Example 1: Factor XIa Inhibition Assay Utilizing a Fluorophore-Quencher Pair Peptide Substrate A fluorescence intensity (FLINT) based assay was used to monitor inhibition of Factor XIa. The peptide substrate, 5Fam-[…]-K5Tamra (purchased from New England Peptide) was chosen based on the FXI sequence. Conversion of zymogen FXI to its activated form, FXIa, occurs by proteolytic cleavage by […] at two sites, Arg146 and Arg180. The custom peptide used in this assay was based on the Arg146 cleavage site of FXI. The peptide substrate was designed with a fluorophore-quencher pair, where the fluorescence is quenched until FXIa cleaves the 8-mer peptide after the Arg residue.
The Factor XIa FLINT assay was used with the following 5Fam-[…]-K5Tamra assay buffer: 50 mM Tris, pH 7.5, 100 mM NaCl, 5 mM CaCl2, 0.1 mg/mL BSA, 0.03% CHAPS. Assay buffer was prepared by mixing all ingredients fresh. 5Fam-[…]-K5Tamra peptide substrate was first prepared at 10 mM in 100% DMSO, then diluted to 3 mM in 100% DMSO. Assay buffer was then added directly to the 3 mM stock of substrate to prepare the 30 μM 2× working concentration (15 μM final concentration). The 2× Factor XIa stock solution was prepared by diluting 6.562 μM stock in 1× assay buffer for a […].
Test compound(s) were run in an 11-point, 3-fold serial dilution with a final top compound concentration of 100 nM. Final DMSO in assay was 2%. FXIa was preincubated with compound for 30-minutes and then substrate was added to initiate the reaction. The assay was run with kinetic (KIN) reads at 5 min intervals over 30 minutes. […] More specifically, the assay was run as follows: • 100 nL of 0.01 mM test compound was dispensed into black 384-well non-binding Greiner BioOne 784900 plate for 0.1 μM final concentration; • 5 μL of 1× assay buffer was dispensed to column 24 (low control) and 5 μL 2× Factor XIa solution was dispensed to columns 1-23 (column 23 high control); • the plate was centrifuged with a “cover” plate at 500 rpm for 1 min • the plate was pre-incubated for 30 minutes at room temperature with plate covered; • 5 μL of 2×5Fam-[…]-K5Tamra peptide substrate was dispensed into the entire plate, columns 1-24; • the plate was centrifuged with a “cover” plate at 500 rpm for 1 min; • the plate was read monitoring fluorescence intensity on the BMG PHERAStar at room temperature, using fluorescence module 485 nm/520 nm.
(§1) Percent inhibition (IC50) curves were generated per compound tested, and data was analyzed using a 4-parameter logistic fit using GeneData Screener. The relative fluorescence unit (RFU) values were normalized to percent inhibition using the following equation:
% inhibition=((HC−LC)−(compound−LC)/(HC−LC))*100 where LC−low control=mean signal of no Factor XIa or 100% inhibition of Factor XIa; HC−high control=mean signal of Factor XIa+5Fam-[…]-K5Tamra peptide substrate with DMSO only.
(§2) An 11-point dose response curve for the test compound(s) was generated using GENDATA to determine IC50 value based on the following equation:
Y=Bottom+(Top−Bottom)/(1+10^((log IC50−X)*HillSlope)) where Y is the % inhibition in the presence of X inhibitor concentration, Top=high control=mean signal of Factor XIa+5Fam-[…]-K5Tamra peptide substrate with DMSO only; Bottom=low control−mean signal of no Factor XIa or 100% inhibition of Factor XIa; HillSlope−Hill coefficient; and IC50=concentration of compound with 50% inhibition in relation to top/high control.

human plasma kallikrein = human plasma kallikrein (Homo sapiens, UniProt P03952); test: Kallikrein inhibition assay (FLINT) utilizing a quenched AMC peptide substrate Z-Gly-Pro-Arg-AMC; assay type: biochemical; details: kinetic (KIN) reads, read-out: Kallikrein KIN Inh IC50
From the text: Biological Example 2: Kallikrein Inhibition Assay Utilizing a Quenched AMC Peptide Substrate A fluorescence intensity (FLINT) based assay was used to monitor inhibition of human plasma kallikrein. The peptide substrate, Z-Gly-Pro-Arg-AMC (Purchased from Bachem; Catalog #I-1150) was chosen based on its relatively low KM for kallikrein which enables running the assay at lower substrate concentrations to control background fluorescence.
The Kallikrein FLINT assay was used with the following Z-Gly-Pro-Arg-AMC assay buffer: 50 mM Tris, pH 7.5, 100 mM NaCl, 5 mM CaCl2, 0.1 mg/mL BSA, 0.03% CHAPS. Assay buffer was prepared by mixing all ingredients fresh. 2× Z-Gly-Pro-Arg-AMC peptide substrate was prepared by diluting 10 mM stock into 1× assay buffer for a 100 μM working concentration (50 μM final concentration). The 2× kallikrein stock solution was prepared by diluting 14.76 μM stock in 1× assay buffer for a 4 nM working stock solution (2 nM final concentration).
Test compound(s) were run in an 11-point, 3-fold serial dilution with a final top compound concentration of 1 μM. Final DMSO in assay was 2%. Plasma kallikrein was pre-incubated for 30-minute with compound and then 50 μM substrate was added to initiate the reaction. The assay was run with kinetic (KIN) reads at 5 min intervals over 30 minutes. The time course was linear using 2 nM kallikrein greater than 30 minutes. More specifically, the assay was run as follows: • 100 nL of 0.1 mM test compound was dispensed into black 384-well non-binding Greiner BioOne 784900 plate for 1 μM final concentration; • 5 μL of 1× assay buffer was dispensed to columns 24 (low control) and 5 μL 2× human kallikrein enzyme solution was dispensed to columns 1-23 (column 23 high control); • the plate was centrifuged with a “cover” plate at 500 rpm for 1 min • the plate was pre-incubated for 30 minutes at room temperature with plate covered; • 5 μL of 2× Z-Gly-Pro-Arg-AMC peptide substrate was dispensed into the entire plate, columns 1-24; • the plate was centrifuged with a “cover” plate at 500 rpm for 1 min; • the plate was read monitoring fluorescence intensity on the BMG PHERAStar at room temperature, using fluorescence module 340 nm/440 nm.
as §1
% inhibition=((HC−LC)−(compound−LC)/(HC−LC))*100 where LC—low control=mean signal of […] or 100% inhibition of human kallikrein enzyme; HC—high control=mean signal of […]+Z-Gly-Pro-Arg-AMC peptide substrate with DMSO only.
as §2
Y=Bottom+(Top−Bottom)/(1+10^((log IC50−X)*HillSlope)) where Y is the % inhibition in the presence of X inhibitor concentration, Top=high control=mean signal of human kallikrein enzyme+Z-Gly-Pro-Arg-AMC peptide substrate with DMSO only; Bottom=low control−mean signal of no human kallikrein enzyme or 100% inhibition of human kallikrein enzyme; HillSlope−Hill coefficient; and IC50=concentration of compound with 50% inhibition in relation to top/high control.

Sequence of Factor XIa (P03951 388-625 limits assumed): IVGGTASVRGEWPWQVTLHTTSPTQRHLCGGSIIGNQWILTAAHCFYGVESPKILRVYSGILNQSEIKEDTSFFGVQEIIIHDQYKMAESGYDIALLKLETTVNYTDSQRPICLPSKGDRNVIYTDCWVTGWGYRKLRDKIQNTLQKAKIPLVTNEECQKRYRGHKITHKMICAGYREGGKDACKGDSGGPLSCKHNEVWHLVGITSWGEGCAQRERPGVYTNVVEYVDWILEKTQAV
Sequence of Factor XIa (P03951 19-387 partner limits assumed): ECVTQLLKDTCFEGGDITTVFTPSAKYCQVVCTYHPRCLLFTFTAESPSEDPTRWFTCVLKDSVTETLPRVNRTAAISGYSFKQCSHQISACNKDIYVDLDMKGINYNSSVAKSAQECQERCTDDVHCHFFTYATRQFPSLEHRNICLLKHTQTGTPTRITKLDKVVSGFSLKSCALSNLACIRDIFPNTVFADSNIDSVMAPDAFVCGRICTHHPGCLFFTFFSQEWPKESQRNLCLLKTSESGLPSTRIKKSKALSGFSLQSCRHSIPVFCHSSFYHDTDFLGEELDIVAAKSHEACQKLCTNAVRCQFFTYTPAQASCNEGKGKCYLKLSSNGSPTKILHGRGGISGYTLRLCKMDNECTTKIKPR
Sequence of human plasma kallikrein (P03952 391-638 limits assumed): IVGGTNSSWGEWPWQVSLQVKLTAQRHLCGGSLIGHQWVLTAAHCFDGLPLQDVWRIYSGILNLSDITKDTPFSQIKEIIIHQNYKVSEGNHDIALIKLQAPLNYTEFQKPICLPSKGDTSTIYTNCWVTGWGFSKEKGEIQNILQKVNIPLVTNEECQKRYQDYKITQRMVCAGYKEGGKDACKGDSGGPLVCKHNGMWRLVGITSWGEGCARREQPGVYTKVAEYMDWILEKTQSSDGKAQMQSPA
Sequence of human plasma kallikrein (P03952 20-390 partner limits assumed): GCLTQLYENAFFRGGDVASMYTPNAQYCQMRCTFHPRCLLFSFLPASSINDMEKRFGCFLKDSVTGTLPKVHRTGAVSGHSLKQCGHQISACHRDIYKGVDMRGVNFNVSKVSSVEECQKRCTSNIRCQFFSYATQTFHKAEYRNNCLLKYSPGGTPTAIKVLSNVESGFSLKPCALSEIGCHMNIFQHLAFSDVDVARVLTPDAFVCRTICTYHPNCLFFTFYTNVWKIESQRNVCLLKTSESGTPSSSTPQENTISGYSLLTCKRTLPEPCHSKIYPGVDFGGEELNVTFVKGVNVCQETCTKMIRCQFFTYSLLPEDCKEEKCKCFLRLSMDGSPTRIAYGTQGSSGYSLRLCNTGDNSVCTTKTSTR

Row | IC50 (Factor XIa; values in nM) | IC50 (human plasma kallikrein; unit μM) | IC50 (human plasma kallikrein; values in nM) | IC50 (Factor XIa; unit μM) | SMILES
1 | 42.9 nM | – | 0.539 µM | – | C[C@@H]1C[C@H](c2ncc(-c3ccnc(CN)c3)[nH]2)n2c1cc(-c1c(-n3cnnn3)ccc(Cl)c1F)cc2=O (relative stereo) [Example 38, (1*R,3*R)-3-(5-(2-(Aminomethyl)pyridin-4-yl)-1H-imidazol-2-yl)-7-(3-chloro-2-fluoro-6-(1H-tetrazol-1-yl)phenyl)-1-methyl-2,3-dihydroindolizin-5(1H)-one]
2 | – | > 10 µM | – | > 10000 nM | C[C@@H]1C[C@@H](c2ncc(-c3ccnc(F)c3)[nH]2)n2c1cc(-c1c(-n3cnnn3)ccc(Cl)c1F)cc2=O (relative stereo) [Example 45, (1*R,3*S)-7-(3-Chloro-2-fluoro-6-(1H-tetrazol-1-yl)phenyl)-3-(5-(2-fluoropyridin-4-yl)-1H-imidazol-2-yl)-1-methyl-2,3-dihydroindolizin-5(1H)-one]
3 | 0.8 nM | – | 0.0492 µM | – | Cc1nc(N)ccc1-c1cnc([C@@H]2C[C@H](C)c3cc(-c4c(-n5cnnn5)ccc(Cl)c4F)cc(=O)n32)[nH]1 (relative stereo) [Example 51, (1*S,3*S)-3-(5-(6-Amino-2-methylpyridin-3-yl)-1H-imidazol-2-yl)-7-(3-chloro-2-fluoro-6-(1H-tetrazol-1-yl)phenyl)-1-methyl-2,3-dihydroindolizin-5(1H)-one]
4 | – | > 10 µM | – | > 10000 nM | C[C@H]1C[C@@H](c2ncc(-c3cnc(N)c(F)c3)[nH]2)n2c1cc(-c1c(-n3cnnn3)ccc(Cl)c1F)cc2=O (relative stereo) [Example 61, (1*S,3*S)-3-(5-(6-Amino-5-fluoropyridin-3-yl)-1H-imidazol-2-yl)-7-(3-chloro-2-fluoro-6-(1H-tetrazol-1-yl)phenyl)-1-methyl-2,3-dihydroindolizin-5(1H)-one]
5 | 19.6 nM | – | 0.0181 µM | – | C[C@@H]1C[C@@H](c2ncc(-c3cnc(N)c(F)c3)[nH]2)n2c1cc(-c1c(-n3cnnn3)ccc(Cl)c1F)cc2=O (relative stereo) [Example 62, (1*R,3*S)-3-(5-(6-amino-5-fluoropyridin-3-yl)-1H-imidazol-2-yl)-7-(3-chloro-2-fluoro-6-(1H-tetrazol-1-yl)phenyl)-1-methyl-2,3-dihydroindolizin-5(1H)-one]
6 | – | 5.4 µM | – | 1700 nM | COC(=O)Nc1ccc(-c2cnc([C@@H]3C[C@H](C)c4cc(-c5c(-n6cnnn6)ccc(Cl)c5F)cc(=O)n43)[nH]2)cc1 (relative stereo) [Example 64, Methyl(4-(2-((1*S,3*S)-7-(3-chloro-2-fluoro-6-(1H-tetrazol-1-yl)phenyl)-1-methyl-5-oxo-1,2,3,5-tetrahydroindolizin-3-yl)-1H-imidazol-5-yl)phenyl)carbamate]
7 | 56.2 nM | – | 0.377 µM | – | C[C@H]1C[C@@H](c2ncc(-c3ncc(N)nc3C(F)(F)F)[nH]2)n2c1nc(-c1c(-n3cnnn3)ccc(Cl)c1F)cc2=O (relative stereo) [Example 83, (6*S,8*S)-6-(5-(5-Amino-3-(trifluoromethyl)pyrazin-2-yl)-1H-imidazol-2-yl)-2-(3-chloro-2-fluoro-6-(1H-tetrazol-1-yl)phenyl)-8-methyl-7,8-dihydropyrrolo[1,2-a]pyrimidin-4(6H)-one]
8 | 5.7 nM | – | 0.0319 µM | – | COc1nc(N)cnc1-c1cnc([C@@H]2C[C@H](C)c3nc(-c4c(-n5cnnn5)ccc(Cl)c4F)cc(=O)n32)[nH]1 (relative stereo) [Example 84, (6*S,8*S)-6-(5-(5-Amino-3-methoxypyrazin-2-yl)-1H-imidazol-2-yl)-2-(3-chloro-2-fluoro-6-(1H-tetrazol-1-yl)phenyl)-8-methyl-7,8-dihydropyrrolo[1,2-a]pyrimidin-4(6H)-one]
9 | 52 nM | > 1 µM | – | – | C[C@H]1C[C@H](c2ncc(-c3ncc(N)nc3C(F)F)[nH]2)n2c1nc(-c1c(-n3cnnn3)ccc(Cl)c1F)cc2=O (relative stereo) [Example 85, (6*R,8*S)-6-(5-(5-Amino-3-(difluoromethyl)pyrazin-2-yl)-1H-imidazol-2-yl)-2-(3-chloro-2-fluoro-6-(1H-tetrazol-1-yl)phenyl)-8-methyl-7,8-dihydropyrrolo[1,2-a]pyrimidin-4(6H)-one]
10 | > 100 nM | – | 0.819 µM | – | C[C@H]1C[C@@H](c2ncc(-c3ncc(N)nc3C(F)F)[nH]2)n2c1nc(-c1c(-n3cnnn3)ccc(Cl)c1F)cc2=O (relative stereo) [Example 86, (6*S,8*S)-6-(5-(5-Amino-3-(difluoromethyl)pyrazin-2-yl)-1H-imidazol-2-yl)-2-(3-chloro-2-fluoro-6-(1H-tetrazol-1-yl)phenyl)-8-methyl-7,8-dihydropyrrolo[1,2-a]pyrimidin-4(6H)-one]
11 | 1.5 nM | – | 0.0277 µM | – | C[C@H]1C[C@H](c2ncc(-c3ccnc(N)c3F)[nH]2)n2c1nc(-c1c(-n3cnnn3)ccc(Cl)c1F)cc2=O (relative stereo) [Example 87, (6R*,8S*)-6-(5-(2-amino-3-fluoropyridin-4-yl)-1H-imidazol-2-yl)-2-(3-chloro-2-fluoro-6-(1H-tetrazol-1-yl)phenyl)-8-methyl-7,8-dihydropyrrolo[1,2-a]pyrimidin-4(6H)-one]

Row | SMILES | IC50 (Factor XIa; values in nM) | IC50 (human plasma kallikrein; unit μM) | IC50 (human plasma kallikrein; values in nM) | IC50 (Factor XIa; unit μM)
12 | C[C@H]1C[C@H](c2ncc(-c3ccc(N)nc3Cl)[nH]2)n2c1cc(-c1c(-n3cnnn3)ccc(Cl)c1F)cc2=O (relative stereo) [Example 37, (1*S,3*R)-3-(5-(6-Amino-2-chloropyridin-3-yl)-1H-imidazol-2-yl)-7-(3-chloro-2-fluoro-6-(1H-tetrazol-1-yl)phenyl)-1-methyl-2,3-dihydroindolizin-5(1H)-one] | 283 nM | 7.8 µM | – | –
